Patent US8630703B2, “Treatment utilizing hydrophobic weak bases chemotherapeutic agents and illumination” (Technion Research & Development Foundation Limited, priority 2011, dated 2014)
Values joined by “and” are separate entries in the source; they are usually repeats but may differ in a detail not shown here. Equal entries are not always repeated.

Assays:
A549/K1.5 cells [1] = assay: XTT cytotoxicity assay with and without illumination; assay type: cell-based, Human
Procedure: Human non-small cell lung cancer A549 cells and their ABCG2-overexpressing MDR (multi-drug resistant) A549/K1.5 sub-line; ovarian carcinoma cell line 2008 and its stable MRP1-transfectant 2008/MRP1; and human non-small lung cancer cell line SW1573 and its ABCB1-overexpressing subline SW1573/2R160) were maintained in RPMI-1640 medium supplemented with 10% fetal bovine serum, 2 mM glutamine, 100 μg/ml penicillin and streptomycin (Biological Industries, Beth-Haemek, Israel) in a humid atmosphere containing 5% CO2 at 37° C.
(§7) Parental cells and their MDR (multi-drug resistant) sub-lines were seeded in 96-well plates (2×10^4 cells/well in 90 μl growth medium/well). […] Following incubation for 2 hours, the drug-containing medium was replaced by drug-free medium. The cells were then placed on an illuminator plate (Model 460, thin line series, S&S X-Ray Products Inc., Brooklyn, N.Y.) for 1 hour, thereby achieving a light dose of 5 J/cm^2 white light. After illumination, plates were further incubated for an additional 24 hours.
Cell viability was determined using an XTT (2,3-bis-(2-methoxy-4-nitro-5-sulfophenyl)-2H-tetrazolium-5-carboxanilide) Cell Proliferation Kit (Biological Industries). The drug concentrations required to inhibit cell growth by 50% (i.e., IC50 values) were determined from the cell survival curves in the absence and in the presence of illumination. Results are presented as mean values of at least three independent experiments.

A549 cells [2] = assay: XTT cytotoxicity of C-1330 after chloroquine treatment, with and without illumination; assay type: cell-based, Human
Procedure: A549 cells were seeded in 96-well plates at a concentration of 500 cells/well for the 48 hour chloroquine treatment, or at a concentration of 1000 cells/well for the 24 hour chloroquine treatment, in a total volume of 100 μl of medium per well. Following an overnight incubation, chloroquine was then added at the indicated concentrations for 24 or 48 hours. Lysosomes were then stained with LysoTracker® Red, detected by fluorescent imaging as described hereinabove, and quantified using EZQuant software. […]

A549 cells [3] = assay: Live cell fluorescent imaging (lysosomal localization and photodestruction); assay type: cell-based, Human; settings: 470 nm microscope illumination
Procedure: (§1) Lysosomes and mitochondria were stained by incubating the cells 100 nM LysoTracker® Red or 100 nM MitoTracker® Red, respectively, for 1 hour. For subcellular localization of C-1330, cells were also stained with 10 μM C-1330 for 30 minutes.
(§2) Nuclear staining was performed prior to fluorescence imaging by replacing the growth medium with medium containing 2 μg/ml Hoechst 33342, followed by incubation for 10 minutes. Prior to nuclear staining, A549/K1.5 cells were incubated for 1 hour with 10 μM fumitremorgin C (FTC) to prevent efflux of Hoechst 33342 by ABCG2.
(§3) Live cell fluorescent imaging was performed using an Axiovert 200 inverted fluorescence microscope (Carl Zeiss) equipped with a digital camera. […] Light intensity was maintained at 12.5% of the maximum. The magnification used was ×630.
(§4) Cells were pre-incubated with 10 mM ammonium chloride for 30 minutes or with 1 μM bafilomycin A1 for 60 minutes, prior to being incubated with 10 μM C-1330 for 30 minutes as described hereinabove. Ammonium chloride and bafilomycin A1 remained present during the incubation with C-1330.
Monolayers of A549 cells were grown in glass-bottom plates and were washed in growth medium. The medium was then replaced with a special isotonic balanced salt solution lacking or containing either N,N′-dimethylthiourea (DMTU), a potent hydroxyl radical and hydrogen peroxide scavenger, L-histidine, a hydroxyl radical and singlet oxygen radical (^1O2) scavenger, or sodium azide, a singlet oxygen radical scavenger. The salt solution consisted of 10 mM HEPES pH 7.4, 120 mM NaCl, 5 mM KCl, 1 mM CaCl2, 1 mM MgCl2, and 25 mM glucose. After incubation for 1 hour, C-1330 was added to the aforementioned solution buffer for an additional 30 minutes, during which the scavengers remained present, in order to load lysosomes. The cells were then examined by fluorescent imaging as described hereinabove.

A549/K1.5 cells [4] = assay: as above; assay type: cell-based, Human; settings: A549/K1.5; 470 nm microscope illumination
Procedure: as §1, §2, §3, §4
A549/K1.5 cells were incubated with 10 μM doxorubicin for 30 minutes, and then observed and illuminated (at 470 nm) by live cell fluorescent imaging as described in the Materials and Methods section. Upon illumination, the cells were photographed every second, in order to observe changes in the cells over time.

A549 cells [5] = assay: Crystal violet staining of illuminated monolayers; assay type: cell-based, Human; settings: 10 μM 30 min, 470 nm 1 minute, 48 hours after illumination
Procedure: (§5) A549 and A549/K1.5 cells were grown to full confluence on glass-bottom plates and loaded with 10 μM C-1330 for 30 minutes. Before illumination, the spent medium was replaced by fresh medium. Using the inverted fluorescence microscope as a source of illumination, each plate was illuminated for 1 minute at a wavelength of 470 nm, at an intensity of approximately 3 W/m^2. Cells were then incubated at 37° C. for an additional 48 hours. The cells were then washed twice with PBS, fixed with 70% methanol for 10 minutes and stained with a diluted dye solution (1:5) of crystal violet. Stained monolayer cells were then washed three times with double distilled water. Crystal violet-stained cells were then examined and photographed using an M80 binocular at a x8 magnification (Leica Microsystems GmbH), and by an inverted Cell-Observer microscope, at a x1000 magnification (Carl Zeiss).
(§6) Monolayers of A549 and A549/K1.5 cells were pulse-incubated with C-1330 for 30 minutes, washed with drug-free medium, subjected to illumination for 1 minute with a fluorescence microscope, and incubated for 48 additional hours in growth medium. The confluent monolayers were then washed with PBS, fixed with methanol, and stained with crystal violet. The monolayers were then examined by light microscopy.

A549/K1.5 cells [6] = assay: Crystal violet staining of illuminated monolayers; assay type: cell-based, Human; settings: 10 μM 30 min, 470 nm 1 minute, 48 hours after illumination
Procedure: as §5, §6

A549 cells [7] = assay: Texas Red-phalloidin staining of F-actin; assay type: cell-based, Human; settings: 10 μM 30 minutes
Procedure: A549 cells were grown on coverslips in 24-well plates until confluence was reached. Cells were then incubated with 10 μM C-1330 for 30 minutes and then exposed to light for 1 minute, in order to achieve lysosomal photodestruction. Control cells were loaded with C-1330 but were not illuminated. C1330-loaded cells were ether fixed and stained with Texas Red®-X Phalloidin (Life Technologies) with no illumination or stained with Texas Red®-X Phalloidin 2 hours after illumination. Cells were then washed twice with PBS and fixed by adding 4% formaldehyde for 10 minutes at room temperature. Following two additional washes with PBS, 0.1% Triton X-100 was added for 10 minutes, and then washed twice to remove the Triton X-100. Blocking was then achieved using a solution of 20% skim milk and 2.5% fetal calf serum for 20 minutes. At this stage, 5 μl of Texas Red®-X Phalloidin stock solution was added to 0.2 ml of PBS and the samples were incubated for 20 minutes while being protected from light. The samples were finally rinsed to remove excess Texas Red®-X Phalloidin. Coverslips were removed gently from wells and attached onto slides using Fluoromount-G. Fluorescent cells were analyzed by a fluorescence microscope, using an excitation wavelength of 545 nm and an emission wavelength of 605 nm.

A549 cells [8] = assay: XTT cytotoxicity of C-1330 after chloroquine treatment, with and without illumination; assay type: cell-based, Human; settings: 24 hours
A549 cells [9] = assay: XTT cytotoxicity assay with and without illumination
Procedure: as §7
Cell viability was determined using an XTT (2,3-bis-(2-methoxy-4-nitro-5-sulfophenyl)-2H-tetrazolium-5-carboxanilide) Cell Proliferation Kit (Biological Industries). […] Results are presented as mean values of at least three independent experiments.

[10] = chloroquine 20 (μM), 24 hours, no illumination
[11] = chloroquine 20 (μM), 48 hours, no illumination

With `CCN(CC)CCNc1ccc2ncn3c4ccc(OC)cc4c(=O)c1c23` [C-1330] the “difference in survival of illuminated and non-illuminated cells” value (A549/K1.5 cells [1]; A549/K1.5, 3 μM) was 59%, the “cell death without illumination at the indicated concentration (LD10)” value (A549/K1.5 cells [1]; A549/K1.5, FIG. 9B dotted line, no illumination) was “approximately 10%” and the “cell death with illumination at the indicated concentration (LD70)” value (A549/K1.5 cells [1]; A549/K1.5, FIG. 9B dotted line, white light) was roughly 70%. For the same molecule, the Fold sensitization (A549/K1.5 cells [1]; A549/K1.5, control vs illumination) was 14, the “LD50 Control” value (A549/K1.5 cells [1]; A549/K1.5, no illumination) was 12.269 ± 1.119 µM and the “Survival at 3000 nM Control” value (A549/K1.5 cells [1]; A549/K1.5, no illumination) was 87 ± 4%. The “LD50 Illumination” value (A549/K1.5 cells [1]; A549/K1.5, white light 1 hour (5 J/cm^2)) was 850 ± 23 nM, the “Survival at 3000 nM Illumination” value (A549/K1.5 cells [1]; A549/K1.5, white light illumination) was 28 ± 1% and the “resistance of A549/K1.5 cells compared to parental A549 cells” value (A549/K1.5 cells [1]; no illumination) was 2.5 fold. For the same molecule, the “cell death without illumination at the indicated concentration (LD10)” value (A549 cells [2]; 20 μM chloroquine 48 hours, FIG. 12C dotted line, no illumination) was “approximately 10%”, the “cell death with illumination at the indicated concentration (LD90)” value (A549 cells [2]; 20 μM chloroquine 48 hours, FIG. 12C dotted line, white light) was roughly 90% and the Fold sensitization (A549 cells [2]; chloroquine 20 (nM), 24 hours) was 23. For the same molecule, the Fold sensitization (A549 cells [2]; chloroquine 20 (nM), 48 hours) was 49, the “C-1330 LD50 Illumination” value (A549 cells [2]; chloroquine 20 (μM), 24 hours) was 0.648 ± 0.065 µM and the “Survival at 3000 nM Illumination” value (A549 cells [2]; chloroquine 20 (μM), 24 hours) was 29% and 29 ± 07%. For the same molecule, the “C-1330 LD50 Control” value (A549 cells [2]; [10]) was 15.222 ± 0.378 µM, the “Survival at 3000 nM Control” value (A549 cells [2]; [10]) was 79% and 79 ± 5% and the “C-1330 LD50 Illumination” value (A549 cells [2]; chloroquine 20 (μM), 48 hours) was 0.7 ± 0.043 µM. For the same molecule, the “Survival at 3000 nM Illumination” value (A549 cells [2]; chloroquine 20 (μM), 48 hours) was 9% and 9 ± 3%, the “C-1330 LD50 Control” value (A549 cells [2]; [11]) was 34.137 ± 3.084 µM and the “Survival at 3000 nM Control” value (A549 cells [2]; [11]) was 88% and 88 ± 8%. For the same molecule, the Fold sensitization (A549 cells [2]; chloroquine 50 (nM), 24 hours) was 31, the “Survival at 3000 nM Illumination” value (A549 cells [2]; chloroquine 50 (μM), 24 hours) was 23 ± 2% and the “C-1330 LD50 Control” value (A549 cells [2]; chloroquine 50 (μM), 24 hours, no illumination) was 19.609 ± 2.454 µM. The Fold sensitization (A549 cells [2]; chloroquine 100 (nM), 24 hours) was 30, the “Survival at 3000 nM Illumination” value (A549 cells [2]; chloroquine 100 (μM), 24 hours) was 19 ± 3% and the “Survival at 3000 nM Control” value (A549 cells [2]; chloroquine 100 (μM), 24 hours, no illumination) was 90 ± 9%. For the same molecule, the “lysosomal photodestruction upon blue light illumination” value (A549 cells [3]) was “continuous disappearance of lysosomes”, the “lysosomal photodestruction upon blue light illumination” value (A549/K1.5 cells [4]) was “continuous disappearance of lysosomes” and the “appearance of illuminated area of monolayer (crystal violet)” value (A549 cells [5]) was “region of lysed cells”. For the same molecule, the “appearance of illuminated area of monolayer (crystal violet)” value (A549/K1.5 cells [6]) was “region of lysed cells”, the “actin cytoskeleton after illumination” value (A549 cells [7]; 2 hours after illumination) was “devoid of cytoplasmic content and actin cytoskeleton” and the “actin cytoskeleton without illumination” value (A549 cells [7]; no illumination) was “retained a normal actin cytoskeleton”. The “C-1330 LD50 Illumination” value (A549 cells [8]; chloroquine 50 (μM)) was 0.637 ± 0.174 µM, the “Survival at 3000 nM Control” value (A549 cells [8]; chloroquine 50 (μM), no illumination) was 92 ± 7% and the “C-1330 LD50 Illumination” value (A549 cells [8]; chloroquine 100 (μM)) was 0.498 ± 0.064 µM. The “C-1330 LD50 Control” value (A549 cells [8]; chloroquine 100 (μM), no illumination) was 15.048 ± 2.886 µM, the “difference in survival of illuminated and non-illuminated cells” value (A549 cells [9]; 3 μM) was 29% and the Fold sensitization (A549 cells [9]; control vs illumination) was 6. For the same molecule, the “Survival at 3000 nM Control” value (A549 cells [9]; no illumination) was 72% and 72 ± 5%, the “LD50 Control” value (A549 cells [9]; no illumination, 2 h drug, XTT 24 h later) was 5.023 ± 0.716 µM and the “LD50 Illumination” value (A549 cells [9]; white light 1 hour (5 J/cm^2)) was 842 ± 208 nM. The “Survival at 3000 nM Illumination” value (A549 cells [9]; white light illumination) was 43% and 43 ± 6%.
